One compound from patent US5449820A, “Method of preparing high purity 2,6-naphthalene dicarboxylic acid” (Mitsubishi Chemical Corporation, priority 1994, dated 1995) can be followed below.

The nature of the data set: solubility of 2,6-naphthalene dicarboxylic acid with respect to high temperature and high pressure water. Format: physicochemical. The note with it: for solubility in water containing 5 wt % of isopropanol: water containing 5 wt % of isopropanol (entrainer). The method, then:
Although the quantity of water for use in the dissolving process differs depending upon the dissolving temperature, the quantity of water must be larger than a quantity (the saturated solubility) in which coarse 2,6-naphthalene dicarboxylic acid can be completely dissolved. In an example case where water containing 5 wt % of isopropanol is used and the dissolving temperature is 300° C., five parts or more by weight of water with respect to one part by weight of coarse 2,6-naphthalene dicarboxylic acid is required. An example of the results of measurements of the solubility of 2,6-naphthalene dicarboxylic acid with respect to high temperature and high pressure water is shown in Table 1.

On to `O=C(O)c1ccc2cc(C(=O)O)ccc2c1` [2,6-naphthalene dicarboxylic acid], for which the Solubility in water was determined as 0.36 wt % (225 °C, 27 atm); 1.13 wt % (250 °C, 40 atm); 3.28 wt % (275 °C, 60 atm); 8.34 wt % (300 °C, 86 atm); 18.6 wt % (325 °C, 121 atm); 34.2 wt % (375 °C, 230 atm). For the same compound, the Solubility in water (386 °C, 230 atm) is given as 36.7 wt %. In addition, the “solubility in water containing 5 wt % of isopropanol” value turned out to be 4.2 wt % (250 °C) and 18.0 wt % (300 °C). Where the note is “about 370 °C, critical temperature for water”, the “solubility with respect to water (dissolved)” value is recorded as at least 30 wt %.
